Here are results for 5 compounds from patent US20040010018A1, “Treatment of neuropathic pain” (priority 2002, published 2004).

“Also recorded” adds a separate entry of the source. Counter-ions that a name gives are not always drawn.

Data set [1] concerns neuropathic pain (mechanical allodynia). Kind of data set: mechanical allodynia (von Frey) in the rat spinal nerve ligation model of neuropathic pain. The class given is in vivo. The settings on record: for effect of antagonist pretreatment on A-85380 induced anti-allodynia: A-85380 0.75 μmol/kg i.p. From the text: Under halothane anesthesia, the L5 and L6 spinal nerves were tightly ligated in the manner described previously by Chung et al. (Kim S. H., Chung J. M., An experimental model for peripheral neuropathy produced by segmental spinal nerve ligation in the rat. Pain 1992; 50:355-363.). Briefly, an incision was made on the dorsal portion of the hip, and the muscle was blunt dissected to reveal the spinal processes. The L6 transverse process was removed, and the left L5 and L6 spinal nerves were tightly ligated with 5.0 braided silk suture. The wound was cleaned, the membrane sewn with 4.0 dissolvable Vicryl suture and the skin closed with wound clips.
Implantation of the DRG catheters was performed immediately following nerve ligation, with animals maintained under halothane for the entire procedure (35-40 minutes). Catheters were constructed of PE 20 with small pieces of tygon tubing cemented along the catheter to allow for suture anchoring points during surgery. The left L5 DRG was exposed by removing the posterior articular process of the L5 vertebra. Gelfoam was inserted into the cavity to prevent the catheter from damaging the ganglion. The catheter was sutured to the muscle and fascia, then run subcutaneously to exteriorize between the shoulder blades. Saline was infused into the catheter, and it was heat sealed.
The implantation of i.c.v. cannulae were conducted under sodium pentobarbital (50 mg/kg, i.p. Nembutal) anesthesia with nerve ligation occurring just after the implantation; animals were maintained under anesthesia for the entire procedure (40-45 minutes). Animals were implanted with a 22 gauge guide cannulae (Plastics One, Roanoke Va.) cut to 6 mm. The stereotaxic coordinates from bregma were 1.0 mm posterior, 1.6 mm lateral, and 4.5 ventral (Paxinos G. and Watson C., The rat brain in stereotaxic coordinates. New York: Academic Press, 1997). Three skull screws were attached for stability, and the implant was covered with cranioplastic acrylic.
For i.c.v. (intracerebroventricular) infusion, chlorisondamine (10 μg) was dissolved in 5 μl phosphate buffered saline and infused by syringe pump at a rate of 5 μl/min. The infusion was performed 24 hours prior to testing in order to reduce stress to the animals immediately prior to behavioral testing.
For all other routes of administration including intraperotineal (i.p.), intradermal (i.d.) or onto the DRG, chlorisondamine was dissolved in saline. The final volumes for i.p. injections were 1 ml/kg, for i.d. were 50 μl and for DRG injections were 10 μl. All injections were made by hand held syringe.
For the assessment of neuropathic pain, mechanical allodynia in the affected paw of animals who had undergone spinal nerve ligation was evaluated using von Frey filaments. As described previously (Chaplan et al, Quantitative assessment of tactile allodynia in the rat paw. J Neurosci Meth, 1994; 53:55-62), two weeks following surgery, rats were acclimated to the testing box which was constructed of plexiglass with a wire mesh floor to allow access to the planter surface of the hind paws. Using the Dixons Up-Down method, a baseline level of allodynia was taken with allodynia defined as a withdrawal threshold <4 g. Test compounds were then administered and subsequent withdrawal thresholds determined.
For spinal nerve ligation experiments, the timing of antagonist administration depended upon the route of administration. With i.c.v. administration, chlorisondamine or its vehicle was given 24 hours prior to further manipulation. On the day of the experiment, a baseline allodynia score was determined and then A-85380 or its vehicle control was given and measures taken at 15, 30 and 60 minutes post agonist injection. Dose response curves for i.p., i.d. and DRG administration were also determined using this time line. […]

Data set [2] is described as follows: observed side effects / behaviors after injection in neuropathic rats. The format is in vivo, rat.
The conditions of data set [3]: given systemically (i.p.); cited from earlier work.
Data set [4] concerns acute thermal pain. Kind of data set: rat paw withdrawal model of acute thermal pain, normal rats. The class given is in vivo. The settings on record: chlorisondamine 0.4 μmol/kg i.p. 30 min prior, A-85380 0.75 μmol/kg i.p. An excerpt:
For the assessment of acute pain, a paw thermal stimulator was used to evaluate nociceptive responses to an acute thermal stimulus (Anesthesiology Research Laboratory, Department of Anesthesiology, University of California at San Diego, La Jolla, Calif.). The device and behavioral procedure have been described previously (Hargreaves et al., A new and sensitive method for measuring thermal nociception in cutaneous hyperalgesia, Pain 1988, 32:77-88; Dirig et al., Characterization of variables defining hind paw withdrawal latency evoked by radiant thermal stimuli, J. Neurosci. Meth. 1997; 76:183-191). Briefly, rats were placed in Plexiglas boxes on a glass surface maintained at 30° C. and allowed to acclimate for 30 minutes. The measured nociceptive response was the latency to withdraw the hind paw when heated by light from a focused projector lamp (current set at 4.8 A). The final score was the mean of the latencies for the left and right paw. […]
(§1) For acute thermal pain experiments, a baseline withdrawal threshold was determined, and then chlorisondamine or its vehicle was administered. […]
The effect of systemically administered chlorisondamine in a model of acute thermal pain was examined. […] The effect of systemically administered chlorisondamine (0.4 μmol/kg, i.p.) on A-85380 (0.75 μmol/kg, i.p.) was assessed.

The subject of data set [5] is persistent pain. As to the kind of experiment: formalin model of persistent pain (phase two). The format is in vivo, rat. To be noted: A-85380 0.75 μmol/kg i.p. Here is the method:
The formalin test was used as an assessment of persistent pain. The method, described previously (Bannon et al. 1998) is briefly as follows. Following acclimation to the test environment, 50 μl of a 5% formalin solution was injected subcutaneously into the dorsal surface of one of the rear paws. Only phase two, defined as the 20 minute period from 30 to 50 minutes post formalin injection, was scored for nocifensive behaviors including flinching, licking, and biting.
For formalin experiments, chlorisondamine or its vehicle was infused either 24 h or 40-50 minutes prior to further manipulation. A-85380 was then injected and, 5 minutes later, formalin was injected into the paw. Measures were taken between 30 and 50 minutes post formalin injection.
The effect of centrally and systemically administered chlorisondamine in a model of persistent pain was examined. Using phase two of the formalin model of persistent pain, chlorisondamine (10 μg) was administered i.c.v. 24 hours prior to the systemic administration of A-85380.

Data set [6] deals with acute thermal pain. Kind of data set: rat paw withdrawal model of acute thermal pain using neuropathic rats. The format is in vivo. The settings on record: chlorisondamine 0.4 μmol/kg i.p., A-85380 0.75 μmol/kg i.p.
Excerpt: For the assessment of acute pain, a paw thermal stimulator was used to evaluate nociceptive responses to an acute thermal stimulus (Anesthesiology Research Laboratory, Department of Anesthesiology, University of California at San Diego, La Jolla, Calif.). The device and behavioral procedure have been described previously (Hargreaves et al., A new and sensitive method for measuring thermal nociception in cutaneous hyperalgesia, Pain 1988, 32:77-88; Dirig et al., Characterization of variables defining hind paw withdrawal latency evoked by radiant thermal stimuli, J. Neurosci. Meth. 1997; 76:183-191). Briefly, rats were placed in Plexiglas boxes on a glass surface maintained at 30° C. and allowed to acclimate for 30 minutes. The measured nociceptive response was the latency to withdraw the hind paw when heated by light from a focused projector lamp (current set at 4.8 A). The final score was the mean of the latencies for the left and right paw. To avoid tissue damage, the maximal response latency prior to automatic shutoff of the lamp was 20.5 sec.
as §1
To address this concern, neuropathic rats were assessed in the acute thermal model of paw withdrawal. […]

The mark [7] stands for this setting: chlorisondamine 10 μg i.c.v. 24 hours prior.

On to `Cl.Cl.c1cncc(OC[C@@H]2CCN2)c1` [A-85380, 3-(2(S)-azetidinylmethoxy)pyridine dihydrochloride], for which the “anti-allodynia (paw withdrawal threshold)” value in data set [1] (10 μg infused onto the L5 DRG) is “significant anti-allodynia”; in data set [1] (20 μg infused onto the L5 DRG), “significant anti-allodynia”; in data set [1] (infused directly onto the L5 DRG, different doses), “dose-dependent anti-allodynic effect”; in data set [1] (systemically administered (i.p.), no antagonist, dihydrochloride), “significant, dose-dependent decrease; also recorded: dose dependent anti-allodynia; also recorded: dose-dependent anti-allodynia”. In addition, the duration of anti-allodynia in data set [1] (10 μg infused onto the L5 DRG) was 15 min; in data set [1] (20 μg infused onto the L5 DRG), 30 min. Further, the “anti-allodynia in the affected paw (paw withdrawal threshold)” value is “all three doses of A-85380 induced a significant anti-allodynia; also recorded: equivalent or greater anti-allodynia” in data set [1] (10, 20 and 50 μg/rat i.d. into plantar surface of contralateral (unaffected) paw, dihydrochloride); “only the 50 μg dose of A-85380 had an anti-allodynic effect; also recorded: small but significant anti-allodynia” in data set [1] (10, 20 and 50 μg/rat i.d. into plantar surface of ipsalateral (affected) paw, dihydrochloride). Also, the “dose required for significant reduction in allodynia” value in data set [1] (central NNRs blocked with chlorisondamine 10 μg i.c.v.) stood at 3 µmol/kg; in data set [1] (given without an antagonist), 0.75 µmol/kg; in data set [1] (peripheral NNRs blocked with chlorisondamine 0.4 μmol/kg i.p.), 1.5 µmol/kg. The “reduction in allodynia with peripheral NNRs blocked” value in data set [1] (chlorisondamine 0.4 μmol/kg i.p. pretreatment, systemic A-85380) is on record as “significant reduction in allodynia”. In data set [1] (chlorisondamine 10 μg i.c.v. pretreatment, systemic A-85380), the “reduction in allodynia with central NNRs blocked” value was “significant reduction in allodynia”. Moreover, the “potency to increase paw withdrawal threshold, i.p. compared with i.d. administration” value in data set [1] (doses converted to equivalent systemic dose, 15 minute time point) is listed as “similar”. Moreover, the “potency to increase paw withdrawal threshold, DRG administration compared with i.p. and i.d.” value in data set [1] (doses converted to equivalent systemic dose, 15 minute time point, dihydrochloride) was “decidedly more potent; also recorded: most potent”. Moreover, in data set [2] (0.5-1.0 μmol/kg, i.p.), the “behaviors induced immediately following injection” value is “prostration and ataxia”. Besides, the “time point by which prostration and ataxia abated” value in data set [2] (0.5-1.0 μmol/kg, i.p.) is at most 15 min. In data set [2] (chlorisondamine 0.4 μmol/kg i.p. pretreatment, A-85380 at increased dose), the “side effects with peripheral NNRs blocked” value was “significant increase in side effects”. Also, the “side effects with central NNRs blocked” value in data set [2] (chlorisondamine 10 μg i.c.v. pretreatment, A-85380 at increased dose) was “almost no side effects”. Besides, the “side effects accompanying the reduction in allodynia” value in data set [2] (given systemically (i.p.), no antagonist) was “prostration, ataxia, bracing and dyspnea”. In addition, the “crossing of the blood brain barrier” value in data set [3] was “readily crosses the blood brain barrier”.

Take `O=C(NO)c1cncc(N2C[C@H]3CNC[C@H]32)c1` [A-420503, (IR, 5S) 5-(3,6-diazabicyclo [3.2.0]hept-6-yl)-N-hydroxy-nicotinamide]: the anti-allodynia result in data set [1] (62 μmol/kg, i.p.) is on record as “significant anti-allodynia”; in data set [1] (at the DRG, equivalent to 4.77 μmol/kg i.p.) it was “significant anti-allodynia”. The “effects at the DRG after pretreatment with an NMR antagonist” value in data set [1] (DRG administration) is on record as “blocked”. Further, the side effects result in data set [2] (62 μmol/kg, i.p.) is reported as “without any notable side effects”.

Turning to `C[N+](C)(C)CC[N+]1(C)Cc2c(Cl)c(Cl)c(Cl)c(Cl)c2C1` [chlorisondamine, chlorisondamine diiodide], the “effect of antagonist pretreatment on A-85380 induced antinociception (paw withdrawal latency)” value in data set [4] is given as “no effect; also recorded: completely ineffective”; in data set [6], “did not alter; also recorded: does not alter”. In addition, the “effect of antagonist pretreatment on A-85380 induced analgesia (flinches, phase two)” value in data set [5] (chlorisondamine 0.4 μmol/kg i.p. 40-50 minutes prior to formalin) is listed as “no significant attenuation; also recorded: no significant effect”; in data set [5] (setting [7]) it was “completely blocked”. Further, the “effect of antagonist pretreatment on A-85380 induced anti-allodynia” value (shortened to “effect … on A-85380 induced anti-allodynia”) in data set [1] (chlorisondamine 0.4 μmol/kg i.p. 30 minutes prior) and in data set [1] (setting [7]) was “completely blocked” each time. Moreover, the “effect of antagonist pretreatment on anti-allodynia induced by A-85380 infused onto the DRG” value in data set [1] (chlorisondamine 0.4 μmol/kg i.p. 30 minutes prior, A-85380 20 μg onto DRG) was “completely blocked”.

For the compound `CNC1(C)C2CCC(C2)C1(C)C` (stereo not drawn) [Mecamylamine, mecamylamine hydrochloride], the “effect … on A-85380 induced anti-allodynia” value in data set [1] (mecamylamine 1 μmol/kg i.p. 30 minutes prior, hydrochloride) is on record as “completely blocked”; in data set [1] (mecamylamine 1 μmol/kg i.p. 30 minutes prior, listed as mecamylamine, hydrochloride) it was “full blockade”. For the same compound, the “effect of antagonist pretreatment on prostration and ataxia following A-85380 injection” value in data set [2] (mecamylamine 1 μmol/kg i.p. 30 minutes prior to A-85380) was “blocked”.

Regarding `C[N+](C)(C)CCCCCC[N+](C)(C)C` [Hexamethonium, hexamethonium], in data set [1] (hexamethonium 19 μmol/kg i.p. 30 minutes prior), the “effect … on A-85380 induced anti-allodynia” value is listed as “blocked”.
